Earlier results, collected in patent US20180066081A1, “SUBSTITUTED CYCLIC ETHER POLYMERS AND CONJUGATES AND USES THEREOF” (UNIVERSITY OF IOWA RESEARCH FOUNDATION, priority 2015, published 2018).

Settings: chlorhexidine rinses (e.g., PERIDEX, chlorhexidine gluconate 0.12%); from package insert

[H]/N=C(\N/C(=N/[H])NCCCCCCNC(=N)NC(=N)Nc1ccc(Cl)cc1)Nc1ccc(Cl)cc1 [chlorhexidine]
active compound retained in the oral cavity following application: about 30%
